Test results reported in patent publication US9212182B2, “Bicyclic sulfonamide compounds as sodium channel inhibitors” (AMGEN INC., priority 2013, dated 2015).

These molecules were tested against Nav 1.7 (Homo sapiens (Human), UniProt Q15858) (assay: in-vitro Nav 1.7 PX (IC50)). Details: in-vitro Nav 1.7 PX data.
Format: cell-based

Nav 1.7, sequence (Q15858 whole entry): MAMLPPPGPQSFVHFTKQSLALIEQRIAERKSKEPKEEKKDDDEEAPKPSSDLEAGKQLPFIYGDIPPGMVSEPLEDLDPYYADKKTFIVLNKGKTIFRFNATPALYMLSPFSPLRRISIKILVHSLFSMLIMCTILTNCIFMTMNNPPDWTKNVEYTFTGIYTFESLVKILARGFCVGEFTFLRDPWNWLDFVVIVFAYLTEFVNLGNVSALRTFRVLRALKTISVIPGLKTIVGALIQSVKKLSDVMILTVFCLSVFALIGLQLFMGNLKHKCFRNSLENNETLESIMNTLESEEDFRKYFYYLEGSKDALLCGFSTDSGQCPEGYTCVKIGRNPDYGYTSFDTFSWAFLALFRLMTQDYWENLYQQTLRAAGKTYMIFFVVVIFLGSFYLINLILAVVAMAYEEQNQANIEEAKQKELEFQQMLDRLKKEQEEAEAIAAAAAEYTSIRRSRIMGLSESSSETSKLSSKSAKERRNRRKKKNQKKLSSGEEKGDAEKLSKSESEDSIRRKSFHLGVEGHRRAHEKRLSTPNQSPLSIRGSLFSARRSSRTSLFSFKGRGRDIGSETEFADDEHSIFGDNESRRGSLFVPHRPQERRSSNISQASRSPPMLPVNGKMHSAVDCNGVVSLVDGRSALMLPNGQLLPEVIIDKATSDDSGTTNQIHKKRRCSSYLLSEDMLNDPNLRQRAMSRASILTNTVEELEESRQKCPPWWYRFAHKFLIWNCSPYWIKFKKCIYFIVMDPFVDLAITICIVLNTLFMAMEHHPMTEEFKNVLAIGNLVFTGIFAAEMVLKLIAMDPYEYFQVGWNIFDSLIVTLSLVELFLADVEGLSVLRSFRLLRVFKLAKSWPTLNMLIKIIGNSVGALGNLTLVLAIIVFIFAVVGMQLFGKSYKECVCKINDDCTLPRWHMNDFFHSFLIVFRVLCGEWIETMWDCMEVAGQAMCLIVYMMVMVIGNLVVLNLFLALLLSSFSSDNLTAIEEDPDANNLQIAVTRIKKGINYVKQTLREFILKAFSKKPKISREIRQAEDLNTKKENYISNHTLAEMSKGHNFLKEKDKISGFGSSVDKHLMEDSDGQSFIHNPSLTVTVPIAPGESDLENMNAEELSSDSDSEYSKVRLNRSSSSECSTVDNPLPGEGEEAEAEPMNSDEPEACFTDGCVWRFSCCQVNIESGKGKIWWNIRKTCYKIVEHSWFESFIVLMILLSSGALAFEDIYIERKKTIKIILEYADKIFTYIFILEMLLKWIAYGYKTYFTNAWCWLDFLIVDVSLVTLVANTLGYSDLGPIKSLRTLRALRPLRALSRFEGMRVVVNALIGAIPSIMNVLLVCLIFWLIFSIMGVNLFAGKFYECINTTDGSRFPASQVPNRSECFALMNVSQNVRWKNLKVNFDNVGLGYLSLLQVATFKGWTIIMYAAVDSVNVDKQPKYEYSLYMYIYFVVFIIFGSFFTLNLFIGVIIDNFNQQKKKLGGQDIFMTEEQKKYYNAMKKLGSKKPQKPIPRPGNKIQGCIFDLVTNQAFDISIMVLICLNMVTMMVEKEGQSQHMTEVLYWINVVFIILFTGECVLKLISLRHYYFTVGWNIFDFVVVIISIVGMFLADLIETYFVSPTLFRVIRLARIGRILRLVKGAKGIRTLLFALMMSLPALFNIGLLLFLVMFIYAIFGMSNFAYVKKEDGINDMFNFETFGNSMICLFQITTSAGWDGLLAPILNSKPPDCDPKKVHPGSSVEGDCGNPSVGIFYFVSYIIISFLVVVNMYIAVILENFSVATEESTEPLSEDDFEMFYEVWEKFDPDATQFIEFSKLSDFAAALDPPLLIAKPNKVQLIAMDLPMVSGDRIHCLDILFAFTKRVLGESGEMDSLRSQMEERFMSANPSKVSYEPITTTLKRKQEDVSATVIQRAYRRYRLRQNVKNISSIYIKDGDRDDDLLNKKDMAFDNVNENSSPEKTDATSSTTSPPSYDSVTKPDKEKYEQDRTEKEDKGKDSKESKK

IC50	Compound
0.067 µM	COc1cc(-c2ccc(Cl)cc2)c(F)cc1-n1c(=O)ccc2cc(S(=O)(=O)Nc3ccnc(C)n3)ccc21 [Example 751, 1-(4′-chloro-2-fluoro-5-methoxy-4-biphenylyl)-N-(2-methyl-4-pyrimidinyl)-2-oxo-1,2-dihydro-6-quinolinesulfonamide]
0.132 µM	COc1cc(-c2ccc(C#N)cc2)c(F)cc1-n1c(=O)ccc2cc(S(=O)(=O)Nc3ccon3)ccc21 [Example 754, 1-(4′-cyano-2-fluoro-5-methoxy-4-biphenylyl)-N-3-isoxazolyl-2-oxo-1,2-dihydro-6-quinolinesulfonamide]
0.351 µM	COc1cc(-c2ccc(Cl)cc2C(N)=O)c(F)cc1-n1c(=O)ccc2cc(S(=O)(=O)Nc3ccon3)ccc21 [Example 755, 4-chloro-2′-fluoro-4′-(6-(3-isoxazolylsulfamoyl)-2-oxo-1(2H)-quinolinyl)-5′-methoxy-2-biphenylcarboxamide]
0.035 µM	COc1cc(-c2ccc(C3CC3)cc2)c(F)cc1-n1c(=O)ccc2cc(S(=O)(=O)Nc3ccon3)ccc21 [Example 757, 1-(4′-cyclopropyl-2-fluoro-5-methoxy-4-biphenylyl)-N-3-isoxazolyl-2-oxo-1,2-dihydro-6-quinolinesulfonamide]
0.1 µM	COc1cc(-c2cc(OC)c(-n3c(=O)ccc4cc(S(=O)(=O)Nc5ccon5)ccc43)cc2F)c(Cl)cn1 [Example 759, 1-(4-(5-chloro-2-methoxy-4-pyridinyl)-5-fluoro-2-methoxyphenyl)-N-3-isoxazolyl-2-oxo-1,2-dihydro-6-quinolinesulfonamide]
0.015 µM	COc1cc(-c2ccc(OC(F)(F)F)cc2)c(F)cc1-n1c(=O)ccc2cc(S(=O)(=O)Nc3ccon3)ccc21 [Example 760, 1-(2-fluoro-5-methoxy-4′-(trifluoromethoxy)-4-biphenylyl)-N-3-isoxazolyl-2-oxo-1,2-dihydro-6-quinolinesulfonamide]
0.12 µM	COc1cc(-c2ccc(C(F)(F)F)nc2)c(F)cc1-n1c(=O)ccc2cc(S(=O)(=O)Nc3ccon3)ccc21 [Example 761, 1-(5-fluoro-2-methoxy-4-(6-(trifluoromethyl)-3-pyridinyl)phenyl)-N-3-isoxazolyl-2-oxo-1,2-dihydro-6-quinolinesulfonamide]
0.054 µM	COc1cc(-c2ccc(Cl)cc2)ccc1-n1c(=O)ccc2cc(S(=O)(=O)Nc3cc(C)ncn3)ccc21 [Example 767, 1-(4′-chloro-3-methoxy-4-biphenylyl)-N-(6-methyl-4-pyrimidinyl)-2-oxo-1,2-dihydro-6-quinolinesulfonamide]
0.1 µM	COc1cc(-c2ccc(F)cc2)c(F)cc1-n1c(=O)ccc2cc(S(=O)(=O)Nc3ncc(F)cn3)ccc21 [Example 769, 1-(2,4′-difluoro-5-methoxy-4-biphenylyl)-N-(5-fluoro-2-pyrimidinyl)-2-oxo-1,2-dihydro-6-quinolinesulfonamide]
0.053 µM	COc1cc(-c2ccc(F)cc2)c(F)cc1-n1c(=O)ccc2cc(S(=O)(=O)Nc3ncco3)ccc21 [Example 771, 1-(2,4′-difluoro-5-methoxy-4-biphenylyl)-N-1,3-oxazol-2-yl-2-oxo-1,2-dihydro-6-quinolinesulfonamide]

Further lines, the molecule ahead of its results:

Compound	IC50
COc1ccc(-c2cc(OC)c(-n3c(=O)ccc4cc(S(=O)(=O)Nc5ccon5)ccc43)cc2F)cc1C [Example 749, 1-(2-fluoro-4′,5-dimethoxy-3′-methyl-4-biphenylyl)-N-3-isoxazolyl-2-oxo-1,2-dihydro-6-quinolinesulfonamide]	0.048 µM
COc1cc(-c2ccc(Cl)cc2)c(F)cc1-n1c(=O)ccc2cc(S(=O)(=O)Nc3ncc(F)cn3)ccc21 [Example 750, 1-(4′-chloro-2-fluoro-5-methoxy-4-biphenylyl)-N-(5-fluoro-2-pyrimidinyl)-2-oxo-1,2-dihydro-6-quinolinesulfonamide]	0.01 µM
COc1cc(-c2ccc(Cl)cc2)c(F)cc1-n1c(=O)ccc2cc(S(=O)(=O)Nc3cc(C)ncn3)ccc21 [Example 752, 1-(4′-chloro-2-fluoro-5-methoxy-4-biphenylyl)-N-(6-methyl-4-pyrimidinyl)-2-oxo-1,2-dihydro-6-quinolinesulfonamide]	0.02 µM
COc1cc(-c2ccc(Cl)cc2)c(F)cc1-n1c(=O)ccc2cc(S(=O)(=O)Nc3ncco3)ccc21 [Example 753, 1-(4′-chloro-2-fluoro-5-methoxy-4-biphenylyl)-N-1,3-oxazol-2-yl-2-oxo-1,2-dihydro-6-quinolinesulfonamide]	0.037 µM
COc1cc(-c2cc(Cl)ccc2C#N)c(F)cc1-n1c(=O)ccc2cc(S(=O)(=O)Nc3ccon3)ccc21 [Example 758, 1-(5′-chloro-2′-cyano-2-fluoro-5-methoxy-4-biphenylyl)-N-3-isoxazolyl-2-oxo-1,2-dihydro-6-quinolinesulfonamide]	0.02 µM
COc1cc(-c2ccnc(C(F)(F)F)c2)c(F)cc1-n1c(=O)ccc2cc(S(=O)(=O)Nc3ccon3)ccc21 [Example 762, 1-(5-fluoro-2-methoxy-4-(2-(trifluoromethyl)-4-pyridinyl)phenyl)-N-3-isoxazolyl-2-oxo-1,2-dihydro-6-quinolinesulfonamide]	0.041 µM
COc1cc(-c2ccc(OC(F)F)cc2)c(F)cc1-n1c(=O)ccc2cc(S(=O)(=O)Nc3ccon3)ccc21 [Example 763, 1-(4′-(difluoromethoxy)-2-fluoro-5-methoxy-4-biphenylyl)-N-3-isoxazolyl-2-oxo-1,2-dihydro-6-quinolinesulfonamide]	0.03 µM
COc1cc(-c2ccc(Cl)cc2)ccc1-n1c(=O)ccc2cc(S(=O)(=O)Nc3ncc(F)cn3)ccc21 [Example 764, 1-(4′-chloro-3-methoxy-4-biphenylyl)-N-(5-fluoro-2-pyrimidinyl)-2-oxo-1,2-dihydro-6-quinolinesulfonamide]	0.04 µM
COc1cc(-c2ccc(Cl)cc2)ccc1-n1c(=O)ccc2cc(S(=O)(=O)Nc3cccnn3)ccc21 [Example 765, 1-(4′-chloro-3-methoxy-4-biphenylyl)-2-oxo-N-3-pyridazinyl-1,2-dihydro-6-quinolinesulfonamide]	0.112 µM
COc1cc(-c2ccc(Cl)cc2)ccc1-n1c(=O)ccc2cc(S(=O)(=O)Nc3ncco3)ccc21 [Example 766, 1-(4′-chloro-3-methoxy-4-biphenylyl)-N-1,3-oxazol-2-yl-2-oxo-1,2-dihydro-6-quinolinesulfonamide]	0.037 µM
COc1cc(-c2ccc(Cl)cc2)ccc1-n1c(=O)ccc2cc(S(=O)(=O)Nc3ccnc(C)n3)ccc21 [Example 768, 1-(4′-chloro-3-methoxy-4-biphenylyl)-N-(2-methyl-4-pyrimidinyl)-2-oxo-1,2-dihydro-6-quinolinesulfonamide]	0.052 µM
COc1cc(-c2ccc(F)cc2)c(F)cc1-n1c(=O)ccc2cc(S(=O)(=O)Nc3cccnn3)ccc21 [Example 770, 1-(2,4′-difluoro-5-methoxy-4-biphenylyl)-2-oxo-N-3-pyridazinyl-1,2-dihydro-6-quinolinesulfonamide]	0.033 µM
COc1cc(-c2ccc(F)cc2)c(F)cc1-n1c(=O)ccc2cc(S(=O)(=O)Nc3cc(C)ncn3)ccc21 [Example 772, 1-(2,4′-difluoro-5-methoxy-4-biphenylyl)-N-(6-methyl-4-pyrimidinyl)-2-oxo-1,2-dihydro-6-quinolinesulfonamide]	0.232 µM
